Source: PMC9202104 (BMC Biology, 2022)

Target: T1, binding of ZIKV EDIII to EDIII-specific neutralizing mAbs (Zika virus, UniProt A0A024B7W1)
T1 construct: EDIII (residues 298-409 in E protein containing a C-terminal human Fc tag); human Fc (C)
Experiment: ELISA competition assay, EDIII-mAb binding
Conditions: for IC50: mAb 0.5 μg/mL
Method: ELISA was also used to determine the ability of ST087010 to inhibit the binding between ZIKV EDIII and EDIII-specific human mAbs (SMZAb5, ZKA64-LALA, ZV-67, or Z004) or EDI/II-specific human mAb (ZKA78) control. […] The plates were then sequentially incubated with HRP-conjugated anti-human IgG-Fab antibody and TMB substrate, followed by detection of A450 values. Percent inhibition (% inhibition) of compounds was calculated using the formula ((1-(EDIII-mAb-compound)/(EDIII-mAb))×100), and IC50 was obtained using the CalcuSyn computer program.

T1 sequence (A0A024B7W1 588-699): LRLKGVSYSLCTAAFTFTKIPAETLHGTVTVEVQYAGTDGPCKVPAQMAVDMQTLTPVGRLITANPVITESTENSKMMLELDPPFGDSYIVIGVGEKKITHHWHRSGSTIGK

Cc1cc2c(C(C)C)c(O)c(O)c(/C=N/n3c(=O)[nH][nH]c3=O)c2c(O)c1-c1c(C)cc2c(C(C)C)c(O)c(O)c(/C=N/n3c(=O)[nH][nH]c3=O)c2c1O [ST087010]
Inhibition with EDI/II-specific mAb control ZKA78 (ELISA competition, ZKA78 did not bind to EDIII): no inhibition
IC50 (IC50 blocking EDIII binding to mAb SMZAb5, ELISA competition): 5.72 µM
IC50 (IC50 blocking EDIII binding to mAb Z004, ELISA competition): 44.5 µM
IC50 (IC50 blocking EDIII binding to mAb ZKA64-LALA, ELISA competition): 4.17 µM
IC50 (IC50 blocking EDIII binding to mAb ZV-67, ELISA competition): 6.7 µM
